# Calls of active or inactive are those of the source. The calls are words filed in the database; no cut-off is given here.
# Assays:
# Plasmodium berghei [1] = test: Anti-malarial activity against Luciferase-expressing Plasmodium berghei sporozoites inoculated in po dosed Albino C57BL/6 mouse malaria model assessed as elimination of parasites in liver by measuring bioluminescence signal measured after 48 hrs; format: functional, organism-based
# Plasmodium falciparum [2] = test: Antiplasmodial activity against asexual blood-stage Plasmodium falciparum Tm90-C2B using 2% haematocrit and 0.2% parasitemia assessed as reduction in fluorescence measured after 72 hrs by Malaria SYBR Green I-based Fluorescence (MSF) assay; format: functional, organism-based
# [3] = Cytotoxicity against human HepG2 cells assessed as cell viability measured after 48 hrs by MTT assay; format: toxicity, cell-based; conditions: human, HepG2 cells
# [4] = Metabolic stability in human liver microsomes assessed as half life measured up to 60 mins by LC/MS analysis; format: ADME, Microsome
# [5] = Metabolic stability in mouse liver microsomes assessed as half life measured up to 60 mins by LC/MS analysis; format: ADME, Microsome
# Plasmodium yoelii [6] = test: Antimalarial activity against erythrocytic Plasmodium yoelii MRA-428 infected in CF1 mouse assessed as reduction in parasitemia at 10 mg/kg, po once daily for 4 days measured on day 5; format: functional; parameters: scale not given: the % may be the effect or the level left; conditions: time 4 day
# Plasmodium yoelii [7] = test: Antimalarial activity against erythrocytic Plasmodium yoelii MRA-428 infected in CF1 mouse assessed as reduction in parasitemia at 25 mg/kg, po once daily for 4 days measured on day 5; format: functional; parameters: scale not given: the % may be the effect or the level left; conditions: time 4 day
# Plasmodium yoelii [8] = test: Antimalarial activity against erythrocytic Plasmodium yoelii MRA-428 infected in CF1 mouse assessed as reduction in parasitemia at 50 mg/kg, po once daily for 4 days measured on day 5; format: functional; parameters: scale not given: the % may be the effect or the level left; conditions: time 4 day
# Plasmodium yoelii [9] = test: Antimalarial activity against erythrocytic Plasmodium yoelii MRA-428 infected in CF1 mouse assessed as reduction in parasitemia at 80 mg/kg, po once daily for 4 days measured on day 5; format: functional; parameters: scale not given: the % may be the effect or the level left; conditions: time 4 day
# Plasmodium yoelii [10] = test: Antimalarial activity against erythrocytic Plasmodium yoelii MRA-428 infected in CF1 mouse assessed as cured mouse at 10 mg/kg, po once daily for 4 days measured on day 28 day; format: functional, organism-based; conditions: time 4.0 day
# Plasmodium yoelii [11] = test: Antimalarial activity against erythrocytic Plasmodium yoelii MRA-428 infected in CF1 mouse assessed as cured mouse at 25 mg/kg, po once daily for 4 days measured on day 28 day; format: functional, organism-based; conditions: time 4.0 day
# Plasmodium yoelii [12] = test: Antimalarial activity against erythrocytic Plasmodium yoelii MRA-428 infected in CF1 mouse assessed as cured mouse at 50 mg/kg, po once daily for 4 days measured on day 28 day; format: functional, organism-based; conditions: time 4.0 day
# Plasmodium yoelii [13] = test: Antimalarial activity against erythrocytic Plasmodium yoelii MRA-428 infected in CF1 mouse assessed as cured mouse at 80 mg/kg, po once daily for 4 days measured on day 28 day; format: functional, organism-based; conditions: time 4.0 day
# Plasmodium berghei [14] = test: Anti-malarial activity against Luciferase-expressing Plasmodium berghei sporozoites inoculated in po dosed Albino C57BL/6 mouse malaria model assessed as elimination of parasites in blood by measuring bioluminescence signal measured after 72 hrs; format: functional, organism-based
# in vitro = conditions: human
# Description: Selectivity index, ratio of IC50 for cytotoxicity against human HepG2 cells to IC50 for antiplasmodial activity against asexual blood-stage Plasmodium falciparum D6
# Plasmodium falciparum [15] = test: microbe, parasite or virus in culture; conditions: D6, 72 h
# Description: Antiplasmodial activity against asexual blood-stage Plasmodium falciparum D6 using 2% haematocrit and 0.2% parasitemia assessed as reduction in fluorescence measured after 72 hrs by Malaria SYBR Green I-based Fluorescence (MSF) assay
# Plasmodium falciparum [16] = test: microbe, parasite or virus in culture; conditions: Dd2, 72 h
# Description: Antiplasmodial activity against asexual blood-stage Plasmodium falciparum Dd2 using 2% haematocrit and 0.2% parasitemia assessed as reduction in fluorescence measured after 72 hrs by Malaria SYBR Green I-based Fluorescence (MSF) assay
# Plasmodium falciparum [17] = test: Anti-plasmodial activity against Plasmodium falciparum 3D7 infected in erythrocytes assessed as Lag phase (time to observe the maximal killing effect of the drug) at 0.27 uM; format: functional
# Plasmodium falciparum [18] = test: Anti-plasmodial activity against Plasmodium falciparum 3D7 infected in erythrocytes assessed as parasite reduction ratio at 0.27 uM measured 22 to 28 days; format: functional; conditions: time 22-28 day
# Plasmodium falciparum [19] = test: Anti-plasmodial activity against Plasmodium falciparum 3D7 infected in erythrocytes assessed as parasite clearance time at 0.27 uM measured 22 to 28 days relative to initial population; format: functional; conditions: time 22-28 day
SMILES,Activity (Plasmodium berghei [1]),IC50 (Plasmodium falciparum [2]),IC50 at 48 h [3],half-life [4],half-life [5],Activity (Plasmodium yoelii [6]),Activity (Plasmodium yoelii [7]),Activity (Plasmodium yoelii [8]),Activity (Plasmodium yoelii [9]),Activity (Plasmodium yoelii [10]),Activity (Plasmodium yoelii [11]),Activity (Plasmodium yoelii [12]),Activity (Plasmodium yoelii [13]),Activity (Plasmodium berghei [14]),selectivity ratio (in vitro),IC50 (Plasmodium falciparum [15]),IC50 (Plasmodium falciparum [16]),Time (Plasmodium falciparum [17]),log(activity) (Plasmodium falciparum [18]),T99.9% (Plasmodium falciparum [19])
CCC1=C(C)/C(=C/NC2CCCCCC2)N=C1c1ccc[nH]1,inactive,37.6 nM,19.2 µM,17.7 min,10.1 min,100%,100%,100%,100%,Not active; None Of The Mouse Cured Out Of Four Tested,Active; Four Mouse Cured Out Of Four,Active; Four Mouse Cured Out Of Four,Active; Two Mouse Cured Out Of Four,inactive,309,62.2 nM,55.5 nM,,,
CCc1nc(N)nc(N)c1-c1ccc(Cl)cc1 [PYRIMETHAMINE],,,,,,,,,,,,,,,,,,24 h,3.49,54 h

# From ChEMBL document CHEMBL6178021, “Optimization of Tambjamines Active against Multiple Stages of Malaria Parasites” (J Med Chem, 2025)
